Experiment [1] has as its target T1, Mcl-1/Bim interaction, recombinant human Mcl-1 (171-327) (Homo sapiens, UniProt Q07820).
T1 construct: made in house
The experiment is described as follows: Cell free Mcl-1: Bim Affinity Assay (Mcl-1 HTRF). In kind it is binding. As to conditions: TR-FRET, 0.1 nM Mcl-1 (171-327), 0.05 nM biotin-Bim (51-76). The gist of the method:
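Read-out is time-resolved FRET after overnight incubation, using a biotin-labelled peptide from human Bim (51-76) as the binding partner; IC50 was derived from competition curves.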

Experiment [2] deals with OPM-2 human multiple myeloma cell line. Briefly: Cell Viability Assay (OPM-2 10 FBS). In kind it is cell-based. As to conditions: Homo sapiens, OPM-2, 16 h, OPM-2 cells, 16 h, CellTiter-Glo. The gist of the method:
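Plated at 3000 cells/well in 10% FBS complete medium, the cells received a serial compound dilution series and incubated 16 h at 37 °C with 5% CO2. CellTiter-Glo was then added; IC50 values were fitted with a logistic 4-parameter model.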

SMILES strings stand for the structures.

T1 sequence (Q07820 171-327): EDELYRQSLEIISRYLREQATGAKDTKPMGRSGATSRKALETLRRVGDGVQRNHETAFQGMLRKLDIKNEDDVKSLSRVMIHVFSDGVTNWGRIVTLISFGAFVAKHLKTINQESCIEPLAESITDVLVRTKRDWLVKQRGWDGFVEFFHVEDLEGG

For `O=C1NS(=O)(=O)N(CC2CC2)CC/C=C/[C@H](O)[C@@H]2CC[C@H]2CN2C[C@@]3(CCCc4cc(Cl)ccc43)COc3ccc1cc32` [Example 20, (1S,3′R,6′R,7′S,8′E)-6-chloro-12′-(cyclopropylmethyl)-7′-hydroxy-3,4-dihydro-2H,15′H-spiro[naphthalene-1,22′-[20]oxa[13]thia[1,12,14]triazatetracyclo[14.7.2.0^3,6.0^19,24]pentacosa[8,16,18,24]tetraen]-15′-one 13,13′-dioxide], the IC50 stood at 0.00085 µM in experiment [1] and 0.818 µM in experiment [2].
For `O=C1NS(=O)(=O)N(CC2CCCO2)CCC=CC(O)C2CCC2CN2CC3(CCCc4cc(Cl)ccc43)COc3ccc1cc32` (centres unmarked) [Example 21], in that order: 0.000806 µM and 1.08 µM.
With `COCCOCCN1CC/C=C/[C@H](O)[C@@H]2CC[C@H]2CN2C[C@@]3(CCCc4cc(Cl)ccc43)COc3ccc(cc32)C(=O)NS1(=O)=O` [Example 22, (1S,3′R,6′R,7′S,8′E)-6-chloro-7′-hydroxy-12′-(2-(2-methoxyethoxy)ethyl)-3,4-dihydro-2H,15′H-spiro[naphthalene-1,22′-[20]oxa[13]thia[1,12,14]triazatetracyclo[14.7.2.0^3,6.0^19,24]pentacosa[8,16,18,24]tetraen]-15′-one 13,13′-dioxide], the results for the IC50 in experiment [1] and in experiment [2] were 0.00037 µM and 0.276 µM, respectively.
In the case of `CNC(=O)CN1CC/C=C/[C@H](O)[C@@H]2CC[C@H]2CN2C[C@@]3(CCCc4cc(Cl)ccc43)COc3ccc(cc32)C(=O)NS1(=O)=O` [Example 23, 2-((1S,3′R,6′R,7′S,8′E)-6-chloro-7′-hydroxy-13′,13′-dioxido-15′-oxo-3,4-dihydro-2H,12′H-spiro[naphthalene-1,22′-[20]oxa[13]thia[1,12,14]triazatetracyclo[14.7.2.0^3,6.0^19,24]pentacosa[8,16,18,24]tetraen]-12′-yl)-N-methylacetamide], the IC50 in experiment [1] was found to be 0.000314 µM; in experiment [2] it was 3.21 µM.
The corresponding values for `CN(C)C(=O)CN1CC/C=C/[C@H](O)[C@@H]2CC[C@H]2CN2C[C@@]3(CCCc4cc(Cl)ccc43)COc3ccc(cc32)C(=O)NS1(=O)=O` [Example 24, 2-((1S,3′R,6′R,7′S,8′E)-6-chloro-7′-hydroxy-13′,13′-dioxido-15′-oxo-3,4-dihydro-2H,12′H-spiro[naphthalene-1,22′-[20]oxa[13]thia[1,12,14]triazatetracyclo[14.7.2.0^3,6.0^19,24]pentacosa[8,16,18,24]tetraen]-12′-yl)-N,N-dimethylacetamide] are 0.000465 µM and 0.683 µM.
The corresponding values for `COCCOCCN1[C@@H](C)C/C=C/[C@H](O)[C@@H]2CC[C@H]2CN2C[C@@]3(CCCc4cc(Cl)ccc43)COc3ccc(cc32)C(=O)NS1(=O)=O` [Example 25, (1S,3′R,6′R,7′S,8′E,11′S)-6-chloro-7′-hydroxy-12′-(2-(2-methoxyethoxy)ethyl)-11′-methyl-3,4-dihydro-2H,15′H-spiro[naphthalene-1,22′-[20]oxa[13]thia[1,12,14]triazatetracyclo[14.7.2.0^3,6.0^19,24]pentacosa[8,16,18,24]tetraen]-15′-one 13,13′-dioxide] are 0.000246 µM and 0.167 µM.
With `COCCN1[C@@H](C)C/C=C/[C@H](O)[C@@H]2CC[C@H]2CN2C[C@@]3(CCCc4cc(Cl)ccc43)COc3ccc(cc32)C(=O)NS1(=O)=O` [Example 26, (1S,3′R,6′R,7′S,8′E,11′S)-6-chloro-7′-hydroxy-12′-(2-methoxyethyl)-11′-methyl-3,4-dihydro-2H,15′H-spiro[naphthalene-1,22′-[20]oxa[13]thia[1,12,14]triazatetracyclo[14.7.2.0^3,6.0^19,24]pentacosa[8,16,18,24]tetraen]-15′-one 13,13′-dioxide], the IC50 amounted to 0.000205 µM in experiment [1] and 0.312 µM in experiment [2].
The corresponding values for `COCCN1[C@@H](C)C/C=C/[C@H](OC)[C@@H]2CC[C@H]2CN2C[C@@]3(CCCc4cc(Cl)ccc43)COc3ccc(cc32)C(=O)NS1(=O)=O` [Example 27, (1S,3′R,6′R,7′S,8′E,11′S)-6-chloro-7′-methoxy-12′-(2-methoxyethyl)-11′-methyl-3,4-dihydro-2H,15′H-spiro[naphthalene-1,22′-[20]oxa[13]thia[1,12,14]triazatetracyclo[14.7.2.0^3,6.0^19,24]pentacosa[8,16,18,24]tetraen]-15′-one 13,13′-dioxide] are 0.000422 µM and 0.97 µM.
On to `C[C@H]1C/C=C/[C@H](O)[C@@H]2CC[C@H]2CN2C[C@@]3(CCCc4cc(Cl)ccc43)COc3ccc(cc32)C(=O)NS(=O)(=O)N1CC1CC1` [Example 28, (1S,3′R,6′R,7′S,8′E,11′S)-6-chloro-12′-(cyclopropylmethyl)-7′-hydroxy-11′-methyl-3,4-dihydro-2H,15′H-spiro[naphthalene-1,22′-[20]oxa[13]thia[1,12,14]triazatetracyclo[14.7.2.0^3,6.0^19,24]pentacosa[8,16,18,24]tetraen]-15′-one 13,13′-dioxide], for which the figures for the IC50 in experiment [1] and in experiment [2] were 0.0008 µM and 1.7 µM, respectively.
With `COCCN1CC/C=C/[C@H](O)[C@@H]2CC[C@H]2CN2C[C@@]3(CCCc4cc(Cl)ccc43)COc3ccc(cc32)C(=O)NS1(=O)=O` [Example 31, (1S,3′R,6′R,7′S,8′E)-6-chloro-7′-hydroxy-12′-(2-methoxyethyl)-3,4-dihydro-2H,15′H-spiro[naphthalene-1,22′-[20]oxa[13]thia[1,12,14]triazatetracyclo[14.7.2.0^3,6.0^19,24]pentacosa[8,16,18,24]tetraen]-15′-one 13′,13′-dioxide], the figures for the IC50 in experiment [1] and in experiment [2] were 0.000492 µM and 0.621 µM, respectively.
Regarding `COC(=O)CN1CC/C=C/[C@H](O)[C@@H]2CC[C@H]2CN2C[C@@]3(CCCc4cc(Cl)ccc43)COc3ccc(cc32)C(=O)NS1(=O)=O` [Example 32, methyl((1S,3′R,6′R,7′S,8′E)-6-chloro-7′-hydroxy-13′,13′-dioxido-15′-oxo-3,4-dihydro-2H,12′H-spiro[naphthalene-1,22′-[20]oxa[13]thia[1,12,14]triazatetracyclo[14.7.2.0^3,6.0^19,24]pentacosa[8,16,18,24]tetraen]-12′-yl)acetate], the IC50 in experiment [1] was determined as 0.000623 µM; in experiment [2], 0.546 µM.
For `O=C(O)CCN1CC/C=C/[C@H](O)[C@@H]2CC[C@H]2CN2C[C@@]3(CCCc4cc(Cl)ccc43)COc3ccc(cc32)C(=O)NS1(=O)=O` [Example 33, 3-((1S,3′R,6′R,7′S,8′E)-6-chloro-7′-hydroxy-13′,13′-dioxido-15′-oxo-3,4-dihydro-2H,12′H-spiro[naphthalene-1,22′-[20]oxa[13]thia[1,12,14]triazatetracyclo[14.7.2.0^3,6.0^19,24]pentacosa[8,16,18,24]tetraen]-12′-yl)propanoic Acid], the IC50 in experiment [1] stood at 0.000168 µM; in experiment [2], 8.16 µM.
For `CS(=O)(=O)CCN1CC/C=C/[C@H](O)[C@@H]2CC[C@H]2CN2C[C@@]3(CCCc4cc(Cl)ccc43)COc3ccc(cc32)C(=O)NS1(=O)=O` [Example 34, (1S,3′R,6′R,7′S,8′E)-6-chloro-7′-hydroxy-12′-(2-(methylsulfonyl)ethyl)-3,4-dihydro-2H,15′H-spiro[naphthalene-1,22′-[20]oxa[13]thia[1,12,14]triazatetracyclo[14.7.2.0^3,6.0^19,24]pentacosa[8,16,18,24]tetraen]-15′-one 13′,13′-dioxide], in that order: 0.00062 µM and 3.6 µM.

One may read the IC50 as the concentration that gives 50% inhibition.
